Data: US11547663B2, “Unit aerosol doses for anticoagulation” (InCarda Therapeutics, Inc., priority 2015, dated 2023)
Read-outs that look alike come from different tables or passages of the source.

Key:
intrinsic pathway = assay: Activated clotting time (ACT) in dog blood after IV or IT anticoagulant; format: in vivo; details: for ACT LA: Left Atrium
Protocol: To assess the efficacy of anticoagulants delivered via intratracheal (IT) inhalation, four different anticoagulants were tested in a dog study. PK as well as biomarkers of blood in the Left Atrium (LA) and Coronary Sinus (CS) were monitored. These locations were chosen as these are the sites whereby clot formation occurs that leads to Myocardial Infarction or results in stroke. These drugs and doses were selected to represent a wide spectrum of anticoagulant classes. One anticoagulant was tested in one dog on each arm of this study. Activated clotting time (ACT), measures the time in seconds needed for whole blood to clot upon exposure to an activator of an intrinsic pathway by the addition of such as factor XII activators. Measurements were performed in the blood collected from Left Atrium (LA) and in the Coronary sinus (CS)—the targets for stroke prevention and Myocardial Infarction (MI), respectively.

[1] = Dog study summary: effect of inhaled anticoagulant on tested biomarkers; format: in vivo; details: inhaled (IT)
Protocol: (§1) To assess the efficacy of anticoagulants delivered via intratracheal (IT) inhalation, four different anticoagulants were tested in a dog study.
(§2) PK as well as biomarkers of blood in the Left Atrium (LA) and Coronary Sinus (CS) were monitored. These locations were chosen as these are the sites whereby clot formation occurs that leads to Myocardial Infarction or results in stroke.
(§3) These drugs and doses were selected to represent a wide spectrum of anticoagulant classes. One anticoagulant was tested in one dog on each arm of this study.
The standard laboratory tests commonly used to evaluate the efficacy of anticoagulants are the following:
The first test, ACT, was the key in the management of ACS. The latter three tests provided information regarding the prevention of clot formation and growth of an existing clot. The table below summarizes the measurements performed for each anticoagulant in the study.

[2] = cited from earlier work
extrinsic system = assay: Prothrombin Time (PT) in dog blood after IV or IT anticoagulant; format: in vivo; details: for PTCS: Coronary Sinus; for PT LA: Left Atrium
Protocol: as §1, §2, §3
(§4) Factor Xa inhibition; Prothrombin Time (PT): measures the integrity of the extrinsic system as well as factors common to both systems; and Activated Partial Thromboplastin Time (aPTT or PTT): measures the integrity of the intrinsic system and the common components and factor-Xa inhibition.
(§5) Measurements were performed in the blood collected from Left Atrium (LA) and in the Coronary sinus (CS)—the targets for stroke prevention and Myocardial Infarction (MI), respectively.

intrinsic system = assay: Activated Partial Thromboplastin Time (aPTT or PTT) in dog blood after IV or IT anticoagulant; format: in vivo; details: for PTTCS: Coronary Sinus; for PTT LA: Left Atrium
Protocol: as §1, §2, §3, §4, §5

[3] = IT Bivalirudin 2 mg/kg, 0 min (baseline)
[4] = IT Bivalirudin 8 mg/kg, 0 min (baseline)
[5] = IV Bivalirudin 2 mg/kg, 0 min (baseline)

## Bivalirudin
Intrinsic pathway; IT (inhaled)
  effect on ACT: NO effect
Intrinsic pathway; IT (inhaled), listed as bivalirudin
  effect on ACT: no prolongation
Intrinsic pathway; [3]
  ACT LA: 90 s
Intrinsic pathway; IT Bivalirudin 2 mg/kg, 1 min
  ACT LA: 95 s
Intrinsic pathway; IT Bivalirudin 2 mg/kg, 3 min
  ACT LA: 95 s
Intrinsic pathway; IT Bivalirudin 2 mg/kg, 5 min
  ACT LA: 101 s
Intrinsic pathway; IT Bivalirudin 2 mg/kg, 10 min
  ACT LA: 101 s
Intrinsic pathway; IT Bivalirudin 2 mg/kg, 15 min
  ACT LA: 95 s
Intrinsic pathway; IT Bivalirudin 2 mg/kg, 30 min
  ACT LA: 95 s
Intrinsic pathway; IT Bivalirudin 2 mg/kg, 60 min
  ACT LA: 95 s
Intrinsic pathway; [4]
  ACT LA: 78 s
Intrinsic pathway; IT Bivalirudin 8 mg/kg, 1 min
  ACT LA: 95 s
Intrinsic pathway; IT Bivalirudin 8 mg/kg, 3 min
  ACT LA: 89 s
Intrinsic pathway; IT Bivalirudin 8 mg/kg, 5 min
  ACT LA: 90 s
Intrinsic pathway; IT Bivalirudin 8 mg/kg, 10 min
  ACT LA: 89 s
Intrinsic pathway; IT Bivalirudin 8 mg/kg, 15 min
  ACT LA: 90 s
Intrinsic pathway; IT Bivalirudin 8 mg/kg, 30 min
  ACT LA: 90 s
Intrinsic pathway; IT Bivalirudin 8 mg/kg, 60 min
  ACT LA: 89 s
Intrinsic pathway; IV
  effect on ACT: prolonged
Intrinsic pathway; [5]
  ACT LA: 106 s
Intrinsic pathway; IV Bivalirudin 2 mg/kg, 1 min
  ACT LA: 242 s
Intrinsic pathway; IV Bivalirudin 2 mg/kg, 3 min
  ACT LA: 214 s
Intrinsic pathway; IV Bivalirudin 2 mg/kg, 5 min
  ACT LA: 203 s
Intrinsic pathway; IV Bivalirudin 2 mg/kg, 10 min
  ACT LA: 174 s
Intrinsic pathway; IV Bivalirudin 2 mg/kg, 15 min
  ACT LA: 168 s
Intrinsic pathway; IV Bivalirudin 2 mg/kg, 30 min
  ACT LA: 135 s
Intrinsic pathway; IV Bivalirudin 2 mg/kg, 60 min
  ACT LA: 106 s
[1]
  effect of inhaled drug on tested biomarkers (summary): showed NO
[2]; as stated in b199
  half-life: 1 to 2 h
[2]; as stated in b211
  half-life: 2 to 4 h
Extrinsic system; IT (inhaled)
  effect on PT: NO effect
Extrinsic system; [3]
  PTCS: 6.75 s
  PT LA: 6.1 s
Extrinsic system; IT Bivalirudin 2 mg/kg, 3 min
  PTCS: 5.45 s
  PT LA: 5.4 s
Extrinsic system; IT Bivalirudin 2 mg/kg, 15 min
  PTCS: 9.3 s
  PT LA: 5.7 s
Extrinsic system; IT Bivalirudin 2 mg/kg, 60 min
  PTCS: 6.3 s
  PT LA: 7.2 s
Extrinsic system; IT Bivalirudin 2 mg/kg, 1 min
  PT LA: 6 s
Extrinsic system; IT Bivalirudin 2 mg/kg, 5 min
  PT LA: 5.8 s
Extrinsic system; IT Bivalirudin 2 mg/kg, 10 min
  PT LA: 6.2 s
Extrinsic system; IT Bivalirudin 2 mg/kg, 30 min
  PT LA: 5.8 s
Extrinsic system; [4]
  PTCS: 6.5 s
  PT LA: 6.4 s
Extrinsic system; IT Bivalirudin 8 mg/kg, 3 min
  PTCS: 5.5 s
  PT LA: 6.9 s
Extrinsic system; IT Bivalirudin 8 mg/kg, 15 min
  PTCS: 7 s
  PT LA: 6.7 s
Extrinsic system; IT Bivalirudin 8 mg/kg, 60 min
  PTCS: 5.5 s
  PT LA: 5.9 s
Extrinsic system; IT Bivalirudin 8 mg/kg, 1 min
  PT LA: 6.1 s
Extrinsic system; IT Bivalirudin 8 mg/kg, 5 min
  PT LA: 6.3 s
Extrinsic system; IT Bivalirudin 8 mg/kg, 10 min
  PT LA: 7 s
Extrinsic system; IT Bivalirudin 8 mg/kg, 30 min
  PT LA: 6.6 s
Extrinsic system; IV
  effect on PT: prolonged
Extrinsic system; [5]
  PTCS: 5.8 s
  PT LA: 5.8 s
Extrinsic system; IV Bivalirudin 2 mg/kg, 3 min
  PTCS: 25 s
  PT LA: 28.8 s
Extrinsic system; IV Bivalirudin 2 mg/kg, 15 min
  PTCS: 17.2 s
  PT LA: 12.1 s
Extrinsic system; IV Bivalirudin 2 mg/kg, 60 min
  PTCS: 6 s
  PT LA: 6.4 s
Extrinsic system; IV Bivalirudin 2 mg/kg, 1 min
  PT LA: 34.6 s
Extrinsic system; IV Bivalirudin 2 mg/kg, 5 min
  PT LA: 20.8 s
Extrinsic system; IV Bivalirudin 2 mg/kg, 10 min
  PT LA: 17.4 s
Extrinsic system; IV Bivalirudin 2 mg/kg, 30 min
  PT LA: 7.6 s
Intrinsic system; IT (inhaled)
  effect on aPTT: NO effect
Intrinsic system; [3]
  PTTCS: 8.4 s
  PTT LA: 8.4 s
Intrinsic system; IT Bivalirudin 2 mg/kg, 3 min
  PTTCS: 120 s
  PTT LA: 9.1 s
Intrinsic system; IT Bivalirudin 2 mg/kg, 15 min
  PTTCS: 120 s
  PTT LA: 9.4 s
Intrinsic system; IT Bivalirudin 2 mg/kg, 60 min
  PTTCS: 10.7 s
  PTT LA: 11.9 s
Intrinsic system; IT Bivalirudin 2 mg/kg, 1 min
  PTT LA: 8.3 s
Intrinsic system; IT Bivalirudin 2 mg/kg, 5 min
  PTT LA: 8.8 s
Intrinsic system; IT Bivalirudin 2 mg/kg, 10 min
  PTT LA: 11.5 s
Intrinsic system; IT Bivalirudin 2 mg/kg, 30 min
  PTT LA: 8.2 s
Intrinsic system; [4]
  PTTCS: 12.5 s
  PTT LA: 10.3 s
Intrinsic system; IT Bivalirudin 8 mg/kg, 3 min
  PTTCS: 8.1 s
  PTT LA: 11.9 s
Intrinsic system; IT Bivalirudin 8 mg/kg, 15 min
  PTTCS: 120 s
  PTT LA: 9.6 s
Intrinsic system; IT Bivalirudin 8 mg/kg, 60 min
  PTTCS: 21.3 s
  PTT LA: 13 s
Intrinsic system; IT Bivalirudin 8 mg/kg, 1 min
  PTT LA: 8.4 s
Intrinsic system; IT Bivalirudin 8 mg/kg, 5 min
  PTT LA: 11.3 s
Intrinsic system; IT Bivalirudin 8 mg/kg, 10 min
  PTT LA: 9.5 s
Intrinsic system; IT Bivalirudin 8 mg/kg, 30 min
  PTT LA: 9.9 s
Intrinsic system; IV
  effect on aPTT: prolonged
Intrinsic system; [5]
  PTTCS: 10.6 s
  PTT LA: 9.7 s
Intrinsic system; IV Bivalirudin 2 mg/kg, 3 min
  PTTCS: 35.1 s
  PTT LA: 36 s
Intrinsic system; IV Bivalirudin 2 mg/kg, 15 min
  PTTCS: 120 s
  PTT LA: 19.1 s
Intrinsic system; IV Bivalirudin 2 mg/kg, 60 min
  PTTCS: 120 s
  PTT LA: 11 s
Intrinsic system; IV Bivalirudin 2 mg/kg, 1 min
  PTT LA: 42.4 s
Intrinsic system; IV Bivalirudin 2 mg/kg, 5 min
  PTT LA: 26.3 s
Intrinsic system; IV Bivalirudin 2 mg/kg, 10 min
  PTT LA: 23.8 s
Intrinsic system; IV Bivalirudin 2 mg/kg, 30 min
  PTT LA: 15.7 s
